Holding throughout (type): cell-based
Test [1] relates to HCC827 cells (EGFR Exon19 del, non-small cell lung cancer cells). In words: Cell viability assay (WST/CCK8), HCC827 cells. The following applies: Homo sapiens, HCC827, 72 h, HCC827 (Exon19 Del), 72 hours, read-out: IC50 (half inhibitory concentration). The procedure, abridged: (§1)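 Plated 3 000 cells/well in complete RPMI1640 the day before dosing; controls were DMSO (negative) and EGFR TKIs (positive).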

Test [2] deals with PC9 DCT (Del19+T790M+C797S) cells. Nature of the test: Cell viability assay, PC9 cells with EGFR triple mutation. The conditions noted are these: Homo sapiens, PC-9; Table 9; PC9 (Del + T790M + C797S), EGFR triple mutations; read-out: IC50 (half inhibitory concentration). The source says: Construction of EGFR triple mutant cell line PC9 DCT (Dell9+T790M+C797S): The cDNA expressing human EGFR was cloned into pLVX vector, and exon 19 deletion mutation (746-750) and T790M mutation were introduced by point mutation and C797S mutation. Transferred into PC9 cells by lentiviral packaging. Cells stably expressing EGFR triple mutations were obtained by fluorescence screening.
The cDNA sequence expressing human EGFR was cloned into a pLVX vector (GFP^+), and then introduce the EGFR exon 19 deletion (746-750), exon 20 T790M and C797S mutations by were generated by site-directed mutagenesis. The PC9 cells were infected with lentivirus containing the indicated EGFR mutations, and the cells stably expressing EGFR triple mutation were obtained by fluorescence screening.
All of the half inhibitory concentrations (IC50) of these compounds of the present invention were determined with WST reagent from Fuyuan Biotec Company. The specific experiment procedures are as follows: Cancer cells were planted in 96-well-plate at the density of 3 000 cells per well with 100 μL RPMI1640 completed culture medium. In the next day, compounds with indicated concentrations were added to the cells, DMSO was used as the negative control and the EGFR TKIs were used to treat cells as the positive groups. After 72 hours drug treatment, cell viability was measured by using the WST reagent following the instructions. The growth inhibition curve of the compounds on cells were plotted by Prism GraphPad, and the compounds IC50 calculated from it.
The cell viability assays were taken to determine the anti-tumor activity of these indicated compounds in PC9 cells, which overexpressed Exon 19del+T790M+C797S triple mutant EGFR.

Test [3] concerns BT474 cells (HER2 positive breast cancer cells). In words: Cell viability assay (CCK8), BT474 cells. The conditions noted are these: Homo sapiens, BT-474, Table 10, BT474, 72 hours, read-out: IC50 (half inhibitory concentration). The method, boiled down:
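HER2-overexpressing BT474 cells in RPMI1640 were exposed to compounds for 72 hours over 10 concentrations (3-fold dilution, top 10 μM). Viability was measured with CCK8 reagent against a DMSO control, and IC50 was taken from growth inhibition curves.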

Test [4] concerns PC9BracA1 (EGFR Exon 19 del+T790M, non-small cell lung cancer cells). In words: Cell viability assay (WST/CCK8), PC9Brac1 cells. The following applies: read-out: IC50 (half inhibitory concentration). The procedure, abridged:
(§2)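 Cells seeded at 3 000 per well in RPMI1640 complete medium, dosed next day with compounds at indicated concentrations (DMSO negative control, EGFR TKIs as positive control).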

The subject of test [5] is PC9 cells (EGFR Exon 19 del, non-small cell lung cancer cells). Nature of the test: Cell viability assay (WST/CCK8), PC9 cells. The following applies: Homo sapiens, PC-9, PC9 (Exon19 Del), 72 hours, read-out: IC50 (half inhibitory concentration). The method, boiled down:
as §1

Test [6] deals with H1975 (EGFR T790M+L858R mutation, non-small cell lung cancer cell line). In words: Cell viability assay (WST/CCK8), H1975 cells. The following applies: Homo sapiens, NCI-H1975, H1975 (L858R + T790M), read-out: IC50 (half inhibitory concentration). The method, boiled down: as §2
Where [7] appears, read: Table 3, poziotinib-based compounds, WST (CCK8).
Where [8] appears, read: Table 7, canertinib-based compounds, PC9Brca1 (Ex19del + T790M).
Where [9] appears, read: Table 6, canertinib-based compounds, WST.
The mark [10] stands for this setting: Table 7, canertinib-based compounds.
The mark [11] stands for this setting: PC9Brac1 (Ex19del + T790M), 72 hours, WST.

Like-named read-outs stand apart in the source and are kept apart here.

Consider `COc1cc2ncnc(Nc3ccc(Cl)c(Cl)c3F)c2cc1OC1CCN(C(=O)CCCCCNc2cccc3c2C(=O)N(C2CCC(=O)NC2=O)C3=O)CC1` (centres unmarked) [SIAIS219181, 4-((6-(4-((4-((3,4-dichloro-2-fluorophenyl)amino)-7-methoxyquinazolin-6-yl)oxy)piperidin-1-yl)-6-oxohexyl)amino)-2-(2,6-dioxopiperidin-3-yl)isoindoline-1,3-dione], for which the IC50 in test [1] (setting [7]) was determined as 23.1 nM; in test [2], 3.8 nM.

Regarding `COc1cc2ncnc(Nc3ccc(Cl)c(Cl)c3F)c2cc1OC1CCN(C(=O)CCCCCSc2cccc3c2CN(C2CCC(=O)NC2=O)C3=O)CC1` (centres unmarked) [SIAIS219168, 3-(4-((6-(4-((4-((3,4-dichloro-2-fluorophenyl)amino)-7-methoxyquinazolin-6-yl)oxy)piperidin-1-yl)-6-oxohexyl)thio)-1-oxoisoindolin-2-yl)piperidine-2,6-dione], the IC50 in test [1] (setting [7]) amounted to 40 nM; in test [2], 2.9 nM.

Turning to `COc1cc2ncnc(Nc3ccc(Cl)c(Cl)c3F)c2cc1OC1CCN(C(=O)CCCCSc2cccc3c2CN(C2CCC(=O)NC2=O)C3=O)CC1` (centres unmarked) [SIAIS219167, 3-(4-((5-(4-((4-((3,4-dichloro-2-fluorophenyl)amino)-7-methoxyquinazolin-6-yl)oxy)piperidin-1-yl)-5-oxopentyl)thio)-1-oxoisoindolin-2-yl)piperidine-2,6-dione], the IC50 was found to be 31 nM in test [1] (setting [7]) and 4.1 nM in test [2].

Regarding `COc1cc2ncnc(Nc3ccc(Cl)c(Cl)c3F)c2cc1OC1CCN(C(=O)CSc2cccc3c2CN(C2CCC(=O)NC2=O)C3=O)CC1` (centres unmarked) [SIAIS219164, 3-(4-((2-(4-((4-((3,4-dichloro-2-fluorophenyl)amino)-7-methoxyquinazolin-6-yl)oxy)piperidin-1-yl)-2-oxoethyl)thio)-1-oxoisoindolin-2-yl)piperidine-2,6-dione], the IC50 in test [1] (setting [7]) was 33 nM; in test [2], 4.8 nM.

`COc1cc2ncnc(Nc3ccc(Cl)c(Cl)c3F)c2cc1OC1CCN(C(=O)CSc2cccc3c2C(=O)N(C2CCC(=O)NC2=O)C3=O)CC1` (centres unmarked) [SIAIS249014, 4-((2-(4-((4-((3,4-dichloro-2-fluorophenyl)amino)-7-methoxyquinazolin-6-yl)oxy)piperidin-1-yl)-2-oxoethyl)thio)-2-(2,6-dioxopiperidin-3-yl)isoindoline-1,3-dione]: the IC50 in test [1] (setting [7]) came to 51 nM; in test [2], 1.8 nM.

Consider `COc1cc2ncnc(Nc3ccc(Cl)c(Cl)c3F)c2cc1OC1CCN(C(=O)CCCSc2cccc3c2CN(C2CCC(=O)NC2=O)C3=O)CC1` (centres unmarked) [SIAIS219166, 3-(4-((4-(4-((4-((3,4-dichloro-2-fluorophenyl)amino)-7-methoxyquinazolin-6-yl)oxy)piperidin-1-yl)-4-oxobutyl)thio)-1-oxoisoindolin-2-yl)piperidine-2,6-dione], for which the IC50 came to 30 nM in test [1] (setting [7]) and 4.6 nM in test [2].

With `COc1cc2ncnc(Nc3ccc(Cl)c(Cl)c3F)c2cc1OC1CCN(C(=O)CCCNc2cccc3c2C(=O)N(C2CCC(=O)NC2=O)C3=O)CC1` (centres unmarked) [SIAIS219179, 4-((4-(4-((4-((3,4-dichloro-2-fluorophenyl)amino)-7-methoxyquinazolin-6-yl)oxy)piperidin-1-yl)-4-oxobutyl)amino)-2-(2,6-dioxopiperidin-3-yl)isoindoline-1,3-dione], the IC50 stood at 20.2 nM in test [1] (setting [7]) and 3.9 nM in test [2].

Turning to `COc1cc2ncnc(Nc3ccc(Cl)c(Cl)c3F)c2cc1OC1CCN(C(=O)CCCCSc2cccc3c2C(=O)N(C2CCC(=O)NC2=O)C3=O)CC1` (centres unmarked) [SIAIS249017, 4-((5-(4-((4-((3,4-dichloro-2-fluorophenyl)amino)-7-methoxyquinazolin-6-yl)oxy)piperidin-1-yl)-5-oxopentyl)thio)-2-(2,6-dioxopiperidin-3-yl)isoindoline-1,3-dione], the IC50 in test [1] (setting [7]) was 23 nM; in test [2], 2.2 nM.

Turning to `COc1cc2ncnc(Nc3ccc(Cl)c(Cl)c3F)c2cc1OC1CCN(C(=O)CCCCNc2cccc3c2C(=O)N(C2CCC(=O)NC2=O)C3=O)CC1` (centres unmarked) [SIAIS219180, 4-((5-(4-((4-((3,4-dichloro-2-fluorophenyl)amino)-7-methoxyquinazolin-6-yl)oxy)piperidin-1-yl)-5-oxopentyl)amino)-2-(2,6-dioxopiperidin-3-yl)isoindoline-1,3-dione], the IC50 in test [1] (setting [7]) was found to be 26.7 nM; in test [2], 3.3 nM.

Consider `C=CC(=O)Nc1cc2c(Nc3ccc(F)c(Cl)c3)ncnc2cc1OCCCN1CCN(C(=O)CCCCCCNc2cccc3c2C(=O)N(C2CCC(=O)NC2=O)C3=O)CC1` (centres unmarked) [SIAIS262126, N-(4-((3-chloro-4-fluorophenyl)amino)-7-(3-(4-(7-((2-(2,6-dioxopiperidin-3-yl)-1,3-dioxoisoindolin-4-yl)amino)heptanoyl)piperazin-1-yl)propoxy)quinazolin-6-yl)acrylamide], for which the IC50 came to 17.6 nM in test [3]; 85 nM in test [4] (setting [8]); 2.5 nM in test [1] (setting [9]); 2.3 nM in test [5] (setting [9]); 20 nM in test [6] (setting [10]).

With `COc1cc2ncnc(Nc3ccc(F)c(Cl)c3)c2cc1NC(=O)/C=C/CN1CCC(NC(=O)CCCCCCSc2cccc3c2CN(C2CCC(=O)NC2=O)C3=O)CC1` (centres unmarked) [SIAIS262115, (E)-N-(1-(4-((4-((3-chloro-4-fluorophenyl)amino)-7-methoxyquinazolin-6-yl)amino)-4-oxobut-2-en-1-yl)piperidin-4-yl)-7-((2-(2,6-dioxopiperidin-3-yl)-1-oxoisoindolin-4-yl)thio)heptanamide], the IC50 in test [3] was 33.7 nM; in test [4] (setting [11]), 488 nM; in test [1] (WST (CCK8)) it was 4 nM; in test [5] (WST (CCK8)), 7.2 nM; in test [6] (72 hours, WST), 550 nM.

In the case of `COc1cc2ncnc(Nc3ccc(F)c(Cl)c3)c2cc1NC(=O)/C=C/CN1CCC(NC(=O)CCCCCCNc2cccc3c2C(=O)N(C2CCC(=O)NC2=O)C3=O)CC1` (centres unmarked) [SIAIS249085, (E)-N-(1-(4-((4-((3-chloro-4-fluorophenyl)amino)-7-methoxyquinazolin-6-yl)amino)-4-oxobut-2-en-1-yl)piperidin-4-yl)-7-((2-(2,6-dioxopiperidin-3-yl)-1,3-dioxoisoindolin-4-yl)amino)heptanamide], the IC50 was 39.3 nM in test [3]; 481 nM in test [4] (setting [11]); 3 nM in test [1] (WST (CCK8)); 7.9 nM in test [5] (WST (CCK8)); 952 nM in test [6] (72 hours, WST).

With `C=CC(=O)Nc1cc2c(Nc3ccc(F)c(Cl)c3)ncnc2cc1OCCCN1CCC(N2CCN(C(=O)CNc3cccc4c3C(=O)N(C3CCC(=O)NC3=O)C4=O)CC2)CC1` (centres unmarked) [SIAIS262177, N-(4-((3-chloro-4-fluorophenyl)amino)-7-(3-(4-(4-(2-((2-(2,6-dioxopiperidin-3-yl)-1,3-dioxoisoindolin-4-yl)amino)acetyl)piperazin-1-yl)piperidin-1-yl)propoxy)quinazolin-6-yl)acrylamide], the IC50 turned out to be 8.2 nM in test [3]; 209 nM in test [4] (setting [8]); 5.7 nM in test [1] (setting [9]); 3.4 nM in test [5] (setting [9]); 654 nM in test [6] (setting [10]).

Source of the values: US12564638B2 (SHANGHAITECH UNIVERSITY, priority 2019, dated 2026).
